Experimental data published in patent publication US5945436A, “Pyridylmethyl nitriles, amides and thioamides useful as fungicides” (Uniroyal Chemical Company, Inc., priority 1997, dated 1999).

Tests used:
Pythium ultimum = experiment: Fungal growth inhibition, treated disc on agar (PYT ULT); type: cell-based; conditions: disc dipped in 500 mg/l, 29° C.; for inhibition at 500 µg/mL: Globisporangium ultimum, read-out: Percent Growth Inhibition, PYT ULT
Text: (§1) Filter paper discs, each 11 mm. in diameter, were dipped in each of the test solutions. The discs were allowed to air dry to drive off the acetone solvent. A number of untreated discs were used as controls.
(§2) The treated and untreated discs were then placed on agar plates and one of the following fungus species: Septoria nodorum (SEP NOD), Botrytis cinerea (BOT CIN), Fusarium oxysporum (FUS OXY), Pythium ultimum (PYT ULT), Rhizoctonia solani (RHI SOL), Colletotrichum gossypii (COL GOS), and Scierotinia minor (SCL MIN), was added to the center of each disc in the form of a culture plug with the fungus mat in contact with the paper of the test disc. Cercosporidium personatum (CER PER), was added to discs as a spore suspension (20,000 spores/ml) to the disc (two drops of spore suspension per disc), rather than a mycelial culture plug. The plates were then incubated at 29° C. in an oven.
(§3) With the exception of the discs containing Cercosporidium personatum, the discs were evaluated by first measuring the radius from the center of the fungus colony on the treated discs and on the untreated discs. Percent growth inhibition of each of the compounds tested was determined as a function of the difference between the radius of the fungus colony on the treated disc versus the radius of the fungus colony on the untreated disc.

Pyricularia oryzae = experiment: whole plant or invertebrate; type: in vivo; conditions: for pest or weed control at 1000 µg/mL: Pyricularia oryzae, in Hordeum vulgare, foliar, 216 h, read-out: Percent Reduction of Disease, PYR ORY, barley, foliar, 1,000 mg/l; for Percent Reduction of Disease, PYR ORY: barley, foliar, 1,000 mg/l
Fusarium oxysporum = experiment: Fungal growth inhibition, treated disc on agar (FUS OXY); type: cell-based; conditions: disc dipped in 500 mg/l, 29° C.; for inhibition at 500 µg/mL: Fusarium oxysporum, read-out: Percent Growth Inhibition, FUS OXY
Uromyces phaseoli = experiment: Bean rust fungus eradicant test (URO PHA); type: in vivo; conditions: pinto bean, eradicant spray 2 days after inoculation, 1,000 mg/l; for pest or weed control at 1000 µg/mL: Uromyces phaseoli, 216 h, read-out: Percent Reduction of Disease, URO PHA
How it was run: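 Seven-day-old pinto bean plants (Phaseolus vulgaris, primary leaf) were inoculated with 20,000 spores/ml, held 24 h at 99% humidity and 21° C., then sprayed two days post-inoculation with acetone/TWEEN 20 emulsions at 1,000 mg/l. After nine days in a 21° C. greenhouse, disease was scored as percent reduction versus unsprayed controls.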

Helminthosporium sativum = experiment: Barley spot blotch, foliar treatment (HEL SAT); type: in vivo; conditions: foliar, 1,000 mg/l; for pest or weed control at 1000 µg/mL: Helminthosporium, foliar, 216 h, read-out: Percent Reduction of Disease, HEL SAT
How it was run: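 Six-day-old "Robust" barley, 10 plants per pot, sprayed at 1,000 mg/l (acetone solution emulsified in water with TWEEN 20) or left unsprayed as controls. All plants then inoculated with H. sativum spores, held 24 h at 99% humidity, then 8 days in greenhouse at 21° C. Percent control computed.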

Erysiphe graminis [1] = experiment: Powdery mildew in barley, foliar application (ERY GRA); type: in vivo; conditions: foliar, 1,000 mg/l, 8 days after inoculation; for pest or weed control at 1000 µg/mL: Blumeria graminis, foliar, 192 h, read-out: Percent Reduction of Disease, ERY GRA
How it was run: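 'Robust' barley plants sprayed with acetone/TWEEN 20 aqueous emulsion at 1,000 mg/l, dried, then kept at 21° C in a greenhouse. Inoculated by distributing Erysiphe graminis spores from infected plants. Percent control computed from disease scores vs unsprayed control pots.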

Erysiphe graminis [2] = experiment: Powdery mildew of barley, systemic root uptake (BMS); type: in vivo; conditions: 45 ml of 250 mg/l, 8 days after inoculation
How it was run: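 Pot soil of barley (BMS) and cucumber (CMS) plants was drenched with 45 ml of a 250 mg/l acetone/Tween 20 aqueous emulsion, with untreated plants as controls. Disease was scored on a rating scale that included intermediate grades.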

Scierotinia minor = experiment: Fungal growth inhibition, treated disc on agar (SCL MIN); type: cell-based; conditions: disc dipped in 500 mg/l, 29° C.; for inhibition at 500 µg/mL: read-out: Percent Growth Inhibition, SCL MIN
Rhizoctonia solani = experiment: Fungal growth inhibition, treated disc on agar (RHI SOL); type: cell-based; conditions: disc dipped in 500 mg/l, 29° C.; for inhibition at 500 µg/mL: Rhizoctonia solani, read-out: Percent Growth Inhibition, RHI SOL
Text: as §1, §2, §3

Row | SMILES | inhibition at 500 µg/mL (Pythium ultimum) | pest or weed control at 1000 µg/mL (Pyricularia oryzae) | inhibition at 500 µg/mL (Fusarium oxysporum) | pest or weed control at 1000 µg/mL (Uromyces phaseoli) | pest or weed control at 1000 µg/mL (Helminthosporium sativum) | pest or weed control at 1000 µg/mL (Erysiphe graminis [1]) | Percent Reduction of Disease, BMS (Erysiphe graminis [2]) | inhibition at 500 µg/mL (Scierotinia minor) | inhibition at 500 µg/mL (Rhizoctonia solani) | Percent Growth Inhibition, PYT ULT (Pythium ultimum) | Percent Reduction of Disease, PYR ORY (Pyricularia oryzae) | Percent Growth Inhibition, FUS OXY (Fusarium oxysporum) | Percent Reduction of Disease, URO PHA (Uromyces phaseoli) | Percent Reduction of Disease, HEL SAT (Helminthosporium sativum) | Percent Reduction of Disease, ERY GRA (Erysiphe graminis [1]) | Percent Growth Inhibition, SCL MIN (Scierotinia minor) | Percent Growth Inhibition, RHI SOL (Rhizoctonia solani)
1 | COCC(C#N)(CCc1ccc(OC)cc1)c1cccnc1 (stereo not drawn) [Compound 50] | 10% | 0% | 100% | 90% | 100% | 80% | 0% | 100% | 20% | – | – | – | – | – | – | – | –
2 | COCC(C#N)(CCc1ccc(F)cc1)c1cccnc1 (stereo not drawn) [Compound 51] | 0% | 20% | 100% | 20% | 90% | 91% | 90% | 100% | 30% | – | – | – | – | – | – | – | –
3 | N#CC(CCc1ccc(F)cc1)(CC(F)(F)F)c1cccnc1 (stereo not drawn) [Compound 52] | 0% | 90% | 100% | 70% | 100% | 100% | 100% | 100% | 100% | – | – | – | – | – | – | – | –
4 | N#CC(CCF)(CCc1ccc(F)cc1)c1cccnc1 (stereo not drawn) [Compound 53] | 5% | 70% | 100% | 0% | 90% | 100% | 100% | 100% | 75% | – | – | – | – | – | – | – | –
5 | CCCCOc1ccc(CCC(C#N)(CCCC)c2cccnc2)cc1 (stereo not drawn) [Compound 54] | 5% | 90% | 100% | 35% | 100% | 100% | 0% | 100% | 100% | – | – | – | – | – | – | – | –
6 | CC(C)CCC(C#N)(CCc1ccc(F)cc1)c1cccnc1 (stereo not drawn) [Compound 55] | – | – | – | – | – | – | 75% | – | – | 20% | 70% | 65% | 0% | 90% | 100% | 55% | 50%
7 | C=CCC(C#N)(CCc1ccc(OCCCC)cc1)c1cccnc1 (stereo not drawn) [Compound 56] | 5% | 90% | 60% | 0% | 100% | 90% | 0% | 45% | 45% | – | – | – | – | – | – | – | –
8 | CCCCOc1ccc(CCC(C#N)(CCC)c2cccnc2)cc1 (stereo not drawn) [Compound 57] | 5% | 100% | 55% | 0% | 100% | 90% | 0% | 65% | 40% | – | – | – | – | – | – | – | –
9 | CCCCOc1ccc(CCC(C#N)(CC(C)C)c2cccnc2)cc1 (stereo not drawn) [Compound 58] | 0% | 85% | 40% | 0% | 0% | 90% | 0% | 75% | 5% | – | – | – | – | – | – | – | –
10 | CC=CCC(C#N)(CCc1ccc(F)cc1)c1cccnc1 (stereo not drawn) [Compound 59] | 5% | 85% | 100% | 35% | 90% | 100% | 75% | 70% | 5% | – | – | – | – | – | – | – | –
11 | CCCCCC(C#N)(CCc1ccc(F)cc1)c1cccnc1 (stereo not drawn) [Compound 60] | 50% | 70% | 20% | 50% | 90% | 100% | 75% | 100% | 100% | – | – | – | – | – | – | – | –
12 | C#CCC(CCc1ccccc1)(C(N)=S)c1cccnc1 (stereo not drawn) [Compound 61, α-(2-phenylethyl)-α-(2-propynyl)-3-pyridinethanethioamide] | 100% | 50% | 100% | 0% | 85% | 100% | 20% | 100% | 80% | – | – | – | – | – | – | – | –
13 | CCCCCC(CCc1ccc(F)cc1)(C(N)=O)c1cccnc1 (stereo not drawn) [Compound 62] | 5% | 0% | 10% | 35% | 0% | 0% | 20% | 100% | 5% | – | – | – | – | – | – | – | –
14 | CCCCC(C#N)(CCCc1ccccc1OC)c1cccnc1 (stereo not drawn) [Compound 63] | 10% | 0% | 20% | 0% | 0% | 0% | 0% | 100% | 5% | – | – | – | – | – | – | – | –
15 | N#CC(CCCF)(CCc1ccc(F)cc1)c1cccnc1 (stereo not drawn) [Compound 64] | 0% | 20% | 100% | 70% | 85% | 0% | 20% | 50% | 20% | – | – | – | – | – | – | – | –
16 | N#CC(CCCF)(CCc1ccccc1F)c1cccnc1 (stereo not drawn) [Compound 66] | 0% | 0% | 100% | 70% | 100% | 50% | 100% | 100% | 45% | – | – | – | – | – | – | – | –
17 | C=CCC(C#N)(CCc1ccccc1F)c1cccnc1 (stereo not drawn) [Compound 67] | 20% | 0% | 100% | 50% | 100% | 100% | 100% | 100% | 40% | – | – | – | – | – | – | – | –
18 | CCCCC(C#N)(CCc1ccc(OCCF)cc1)c1cccnc1 (stereo not drawn) [Compound 68] | 40% | 70% | 100% | 50% | 100% | 75% | 0% | 100% | 45% | – | – | – | – | – | – | – | –
19 | CCCCC(C#N)(CCc1ccc(OCCC)cc1)c1cccnc1 (stereo not drawn) [Compound 69] | – | – | – | – | – | – | 0% | – | – | 35% | 0% | 30% | 0% | 85% | 50% | 100% | 5%
20 | C=CCC(C#N)(CCCc1ccccc1OC)c1cccnc1 (stereo not drawn) [Compound 70] | 49% | 0% | 25% | 17% | 100% | 92% | 40% | 100% | 28% | – | – | – | – | – | – | – | –
